# Experimental data from patent US20230017045A1, “PYRIDINE AND PYRIMIDINE CARBOXYLATE HERBICIDES AND METHODS OF USE THEREOF” (Dow AgroSciences LLC, priority 2017, published 2023).
# System: test plant species
# Test: Post-emergent herbicidal activity test (greenhouse, foliar spray, visual growth reduction)
# Type: in vivo
# Details: post-emergence, 336 h, ALOMY: blackgrass (Alopecurus myosuroides), 140 g ai/ha, 14 days after application, read-out: Visual Growth Reduction (%) 14 Days After Application, ALOMY
# In short: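 Greenhouse plants at first–second true leaf stage sprayed overhead at 187 L/ha with compound in acetone/water/isopropanol/DMSO/crop oil/X-77 carrier; controls received solvent blank. Injury rated visually after 14 d on a 0–100% scale versus untreated and control plants, converted to growth reduction.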
row,Structure (SMILES),pest or weed control at 140 g/ha [%]
1,"O=C(O)c1nc(-c2ncc(C(F)(F)F)cc2Cl)ccc1Cl [F164, 3′,5-Dichloro-5′-(trifluoromethyl)-[2,2′-bipyridine]-6-carboxylic acid]",60 to 74
2,"COC(=O)c1nc(-c2cc(O)c(Cl)cc2F)ccc1Cl [F128, Methyl 3-chloro-6-(4-chloro-2-fluoro-5-hydroxyphenyl) picolinate]",0 to 29

# Same assay, conditions: post-emergence, 336 h, AMARE: redroot pigweed (Amaranthus retroflexus), 140 g ai/ha, 14 days after application, read-out: Visual Growth Reduction (%) 14 Days After Application, AMARE
row,Structure (SMILES),pest or weed control at 140 g/ha [%]
1,"O=C(O)c1nc(-c2ncc(C(F)(F)F)cc2Cl)ccc1Cl [F164, 3′,5-Dichloro-5′-(trifluoromethyl)-[2,2′-bipyridine]-6-carboxylic acid]",95 to 100
2,"COC(=O)c1nc(-c2cc(O)c(Cl)cc2F)ccc1Cl [F128, Methyl 3-chloro-6-(4-chloro-2-fluoro-5-hydroxyphenyl) picolinate]",0 to 29

# Same assay, conditions: post-emergence, 336 h, AVEFA: wild oat (Avena fatua), 140 g ai/ha, 14 days after application, read-out: Visual Growth Reduction (%) 14 Days After Application, AVEFA
row,Structure (SMILES),pest or weed control at 140 g/ha [%]
1,"O=C(O)c1nc(-c2ncc(C(F)(F)F)cc2Cl)ccc1Cl [F164, 3′,5-Dichloro-5′-(trifluoromethyl)-[2,2′-bipyridine]-6-carboxylic acid]",60 to 74
2,"COC(=O)c1nc(-c2cc(O)c(Cl)cc2F)ccc1Cl [F128, Methyl 3-chloro-6-(4-chloro-2-fluoro-5-hydroxyphenyl) picolinate]",0 to 29

# Same assay, conditions: post-emergence, 336 h, CHEAL: lambsquarters (Chenopodium album), 140 g ai/ha, 14 days after application, read-out: Visual Growth Reduction (%) 14 Days After Application, CHEAL
row,Structure (SMILES),pest or weed control at 140 g/ha [%]
1,"O=C(O)c1nc(-c2ncc(C(F)(F)F)cc2Cl)ccc1Cl [F164, 3′,5-Dichloro-5′-(trifluoromethyl)-[2,2′-bipyridine]-6-carboxylic acid]",95 to 100
2,"COC(=O)c1nc(-c2cc(O)c(Cl)cc2F)ccc1Cl [F128, Methyl 3-chloro-6-(4-chloro-2-fluoro-5-hydroxyphenyl) picolinate]",0 to 29

# Same assay, conditions: post-emergence, 336 h, CIRAR: canada thistle (Cirsium arvense), 140 g ai/ha, 14 days after application, read-out: Visual Growth Reduction (%) 14 Days After Application, CIRAR
row,Structure (SMILES),pest or weed control at 140 g/ha [%]
1,"O=C(O)c1nc(-c2ncc(C(F)(F)F)cc2Cl)ccc1Cl [F164, 3′,5-Dichloro-5′-(trifluoromethyl)-[2,2′-bipyridine]-6-carboxylic acid]",85 to 94
2,"COC(=O)c1nc(-c2cc(O)c(Cl)cc2F)ccc1Cl [F128, Methyl 3-chloro-6-(4-chloro-2-fluoro-5-hydroxyphenyl) picolinate]",0 to 29

# Same assay, conditions: post-emergence, 336 h, CYPES: yellow nutsedge (Cyperus esculentus), 140 g ai/ha, 14 days after application, read-out: Visual Growth Reduction (%) 14 Days After Application, CYPES
row,Structure (SMILES),pest or weed control at 140 g/ha [%]
1,"O=C(O)c1nc(-c2ncc(C(F)(F)F)cc2Cl)ccc1Cl [F164, 3′,5-Dichloro-5′-(trifluoromethyl)-[2,2′-bipyridine]-6-carboxylic acid]",0 to 29
2,"COC(=O)c1nc(-c2cc(O)c(Cl)cc2F)ccc1Cl [F128, Methyl 3-chloro-6-(4-chloro-2-fluoro-5-hydroxyphenyl) picolinate]",0 to 29

# Same assay, conditions: post-emergence, 336 h, DIGSA: crabgrass (Digitaria sanguinalis), 140 g ai/ha, 14 days after application, read-out: Visual Growth Reduction (%) 14 Days After Application, DIGSA
row,Structure (SMILES),pest or weed control at 140 g/ha [%]
1,"O=C(O)c1nc(-c2ncc(C(F)(F)F)cc2Cl)ccc1Cl [F164, 3′,5-Dichloro-5′-(trifluoromethyl)-[2,2′-bipyridine]-6-carboxylic acid]",95 to 100
2,"COC(=O)c1nc(-c2cc(O)c(Cl)cc2F)ccc1Cl [F128, Methyl 3-chloro-6-(4-chloro-2-fluoro-5-hydroxyphenyl) picolinate]",0 to 29

# Same assay, conditions: post-emergence, 336 h, ECHCG: barnyardgrass (Echinochloa crus-galli), 140 g ai/ha, 14 days after application, read-out: Visual Growth Reduction (%) 14 Days After Application, ECHCG
row,Structure (SMILES),pest or weed control at 140 g/ha [%]
1,"O=C(O)c1nc(-c2ncc(C(F)(F)F)cc2Cl)ccc1Cl [F164, 3′,5-Dichloro-5′-(trifluoromethyl)-[2,2′-bipyridine]-6-carboxylic acid]",85 to 94
2,"COC(=O)c1nc(-c2cc(O)c(Cl)cc2F)ccc1Cl [F128, Methyl 3-chloro-6-(4-chloro-2-fluoro-5-hydroxyphenyl) picolinate]",0 to 29

# Same assay, conditions: post-emergence, 336 h, IPOHE: ivy-leaf morning glory (Ipomoea hederacea), 140 g ai/ha, 14 days after application, read-out: Visual Growth Reduction (%) 14 Days After Application, IPOHE
row,Structure (SMILES),pest or weed control at 140 g/ha [%]
1,"O=C(O)c1nc(-c2ncc(C(F)(F)F)cc2Cl)ccc1Cl [F164, 3′,5-Dichloro-5′-(trifluoromethyl)-[2,2′-bipyridine]-6-carboxylic acid]",95 to 100
2,"COC(=O)c1nc(-c2cc(O)c(Cl)cc2F)ccc1Cl [F128, Methyl 3-chloro-6-(4-chloro-2-fluoro-5-hydroxyphenyl) picolinate]",0 to 29

# Same assay, conditions: post-emergence, 336 h, KCHSC: kochia (Bassia scoparia), 140 g ai/ha, 14 days after application, read-out: Visual Growth Reduction (%) 14 Days After Application, KCHSC
row,Structure (SMILES),pest or weed control at 140 g/ha [%]
1,"O=C(O)c1nc(-c2ncc(C(F)(F)F)cc2Cl)ccc1Cl [F164, 3′,5-Dichloro-5′-(trifluoromethyl)-[2,2′-bipyridine]-6-carboxylic acid]",95 to 100
2,"COC(=O)c1nc(-c2cc(O)c(Cl)cc2F)ccc1Cl [F128, Methyl 3-chloro-6-(4-chloro-2-fluoro-5-hydroxyphenyl) picolinate]",0 to 29

# Same assay, conditions: post-emergence, 336 h, ORYSA: rice (Oryza sativa), 140 g ai/ha, 14 days after application, read-out: Visual Growth Reduction (%) 14 Days After Application, ORYSA
row,Structure (SMILES),pest or weed control at 140 g/ha [%]
1,"O=C(O)c1nc(-c2ncc(C(F)(F)F)cc2Cl)ccc1Cl [F164, 3′,5-Dichloro-5′-(trifluoromethyl)-[2,2′-bipyridine]-6-carboxylic acid]",60 to 74
2,"COC(=O)c1nc(-c2cc(O)c(Cl)cc2F)ccc1Cl [F128, Methyl 3-chloro-6-(4-chloro-2-fluoro-5-hydroxyphenyl) picolinate]",0 to 29

# Same assay, conditions: post-emergence, 336 h, SETFA: giant foxtail (Setaria faberi), 140 g ai/ha, 14 days after application, read-out: Visual Growth Reduction (%) 14 Days After Application, SETFA
row,Structure (SMILES),pest or weed control at 140 g/ha [%]
1,"O=C(O)c1nc(-c2ncc(C(F)(F)F)cc2Cl)ccc1Cl [F164, 3′,5-Dichloro-5′-(trifluoromethyl)-[2,2′-bipyridine]-6-carboxylic acid]",95 to 100
2,"COC(=O)c1nc(-c2cc(O)c(Cl)cc2F)ccc1Cl [F128, Methyl 3-chloro-6-(4-chloro-2-fluoro-5-hydroxyphenyl) picolinate]",0 to 29

# Same assay, conditions: post-emergence, 336 h, SORVU: grain sorghum (Sorghum vulgare), 140 g ai/ha, 14 days after application, read-out: Visual Growth Reduction (%) 14 Days After Application, SORVU
row,Structure (SMILES),pest or weed control at 140 g/ha [%]
1,"O=C(O)c1nc(-c2ncc(C(F)(F)F)cc2Cl)ccc1Cl [F164, 3′,5-Dichloro-5′-(trifluoromethyl)-[2,2′-bipyridine]-6-carboxylic acid]",85 to 94
2,"COC(=O)c1nc(-c2cc(O)c(Cl)cc2F)ccc1Cl [F128, Methyl 3-chloro-6-(4-chloro-2-fluoro-5-hydroxyphenyl) picolinate]",0 to 29

# Same assay, conditions: post-emergence, 336 h, STEME: common chickweed (Stellaria media), 140 g ai/ha, 14 days after application, read-out: Visual Growth Reduction (%) 14 Days After Application, STEME
row,Structure (SMILES),pest or weed control at 140 g/ha [%]
1,"O=C(O)c1nc(-c2ncc(C(F)(F)F)cc2Cl)ccc1Cl [F164, 3′,5-Dichloro-5′-(trifluoromethyl)-[2,2′-bipyridine]-6-carboxylic acid]",30 to 44
2,"COC(=O)c1nc(-c2cc(O)c(Cl)cc2F)ccc1Cl [F128, Methyl 3-chloro-6-(4-chloro-2-fluoro-5-hydroxyphenyl) picolinate]",0 to 29

# Same assay, conditions: post-emergence, 336 h, TRZAS: wheat, spring (Triticum aestivum), 140 g ai/ha, 14 days after application, read-out: Visual Growth Reduction (%) 14 Days After Application, TRZAS
row,Structure (SMILES),pest or weed control at 140 g/ha [%]
1,"O=C(O)c1nc(-c2ncc(C(F)(F)F)cc2Cl)ccc1Cl [F164, 3′,5-Dichloro-5′-(trifluoromethyl)-[2,2′-bipyridine]-6-carboxylic acid]",85 to 94
2,"COC(=O)c1nc(-c2cc(O)c(Cl)cc2F)ccc1Cl [F128, Methyl 3-chloro-6-(4-chloro-2-fluoro-5-hydroxyphenyl) picolinate]",0 to 29
